Each structure is given as a SMILES string. Starred links: 1 amine or outer side, 2 acyl side, 3 side chain; linkers in the order of their positions; H or OH if unused. Positions of bridges follow the written chain, without caps; N, C: chain ends. Non-standard residues stand in square brackets, D forms with d. Residues, ends and D or L forms follow the SMILES beside them. Groups on a side chain read outwards from the residue. *: point of attachment. X3 = NC(=O)[C@H](CCCCN*)NC(=O)CC[C@H](NC(=O)CC[C@H](NC(=O)CCCCCCCCCCCCCCC(=O)O)C(=O)O)C(=O)O; Trp(1-CH2CO) = O=C([C@H](Cc1cn(CC(=O)[*:3])c2ccccc12)N[*:1])[*:2]; Trp(5-OMe) = COc1ccc2[nH]cc(C[C@H](N)C(=O)O)c2c1; Butanoyl(4-(4-I-phenyl)) = O=C(CCCc1ccc(I)cc1)*; Trp(5-OH) = N[C@@H](Cc1c[nH]c2ccc(O)cc12)C(=O)O; Phe(4-COOH) = N[C@@H](Cc1ccc(C(=O)O)cc1)C(=O)O; Piperazinyl(4-CH2COOH) = O=C(O)CN1CCN(*)CC1; X7 = O=C(O)CN1CCC(N[*:1])(C(=O)[*:2])CC1; C16 diacid = O=C(O)CCCCCCCCCCCCCCC(=O)*; γGlu = O=C(O)[C@H](CCC(=O)[*:2])N[*:1]; Hexanoyl(6-Ph) = O=C(CCCCCc1ccccc1)*; X9 = O=C(CCCc1ccc(-c2ccccc2)cc1)*; 4Pal = N[C@@H](Cc1ccncc1)C(=O)O; NMeK = CN[C@@H](CCCCN)C(=O)O; Aib = CC(C)(N)C(=O)O; CO = O=C([*:1])[*:2]

The first assay deals with T1, Recombinant human GhR-Fc protein (Homo sapiens, UniProt P10912).
T1 construct: purchased R&D Systems
T1 sequence (P10912 with tags, fused parts or gaps limits assumed): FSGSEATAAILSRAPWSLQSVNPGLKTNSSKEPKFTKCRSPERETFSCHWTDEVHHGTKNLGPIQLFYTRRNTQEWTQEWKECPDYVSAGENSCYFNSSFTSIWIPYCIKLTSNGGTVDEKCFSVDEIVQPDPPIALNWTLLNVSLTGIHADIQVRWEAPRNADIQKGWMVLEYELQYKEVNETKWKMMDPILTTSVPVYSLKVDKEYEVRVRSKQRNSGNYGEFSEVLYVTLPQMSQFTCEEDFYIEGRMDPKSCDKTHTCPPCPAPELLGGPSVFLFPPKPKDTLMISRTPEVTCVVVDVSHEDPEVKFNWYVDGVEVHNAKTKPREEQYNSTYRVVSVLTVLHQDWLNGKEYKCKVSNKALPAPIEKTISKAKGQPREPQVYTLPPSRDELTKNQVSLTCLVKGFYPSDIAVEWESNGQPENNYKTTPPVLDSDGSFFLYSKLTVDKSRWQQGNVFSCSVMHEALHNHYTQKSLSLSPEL
The experiment in a line: SPR binding assay (Biacore T200, single-cycle kinetics) of peptides against immobilized human GhR-Fc.
Settings: not given
The protocol: SPR assay was performed using Biacore T200 (cytiva: Former GE Healthcare). After the equilibration of Series S Sensor Chip CM5 (produced by cytiva: Former GE Healthcare) with Running Buffer (HBS-EP with 1% (v/v) DMSO), an EDC/NHS mixture was injected at a flow rate of 10 μL/min for 7 minutes to thereby activate the functional groups on sensor chip. Recombinant human GhR-Fc protein (R&D Systems) in 10 mM Acetate (pH 4.0) was injected immobilized to at a flow rate of 5 μL/min. It took 7 minutes to immobilize the GhR on the substrate surfaces of the sensor chip. Then Ethanolamine was injected at a flow rate of 10 μL/min for 7 minutes. 1M Ethanolamine (aq.) was injected at a flow rate of 10 μL/min for 420 seconds for capping.
Using these Peptide Samples, kinetics of peptides against human GhR-Fc protein were measured. The method adopted for sample measurement was a single-cycle kinetics method. The analysis was conducted using the evaluation software provided with Biacore T200. A DMSO correction curve obtained by solvent correction measurements was applied for the analysis. Kinetics fitting was done on the difference data obtained by subtracting the baseline data from sample measurement data. KD values were calculated based on the association rate constant (ka) and dissociation rate constant (kd). […]
In general terms: Surface plasmon resonance follows binding to a sensor surface in real time, without labels.
For the compound `COc1ccc2[nH]cc(C[C@@H]3NC(=O)[C@H](CC(N)=O)NC(=O)[C@H](CO)NC(=O)[C@H](C(C)C)NC(=O)[C@H](C(C)C)NC(=O)[C@H](CCCCNC(=O)CC[C@H](NC(=O)CCCc4ccc(-c5ccccc5)cc4)C(=O)O)N(C)C(=O)[C@H](Cc4ccc(C(=O)O)cc4)NC(=O)CSC[C@@H](C(N)=O)NC(=O)[C@H](C(C)C)NC(=O)C4(CCN(CC(=O)O)CC4)NC(=O)[C@H](Cc4c[nH]c5ccc(O)cc45)NC(=O)[C@H](CCCCN)NC(=O)[C@H](Cc4ccc(C(=O)O)cc4)NC3=O)c2c1` [Compound 37] ({CH2CO}-[Phe(4-COOH)][NMeK]([γGlu-X9])VVSN[Trp(5-OMe)][Phe(4-COOH)]K[Trp(5-OH)][X7]VC-NH2; thioether N-13), the Kd came to 5.81 nM.

The same assay, now with this note: SPR, hGhR; Table 1 bicyclic peptides; KD calculated from ka and kd; read-out: KD.
In the case of `CC(C)[C@@H]1NC(=O)[C@H](C(C)C)NC(=O)[C@@H]2CCCCNC(=O)Cn3cc(c4ccccc43)C[C@H](NC(=O)[C@H](CC(N)=O)NC(=O)[C@H](CO)NC1=O)C(=O)N[C@@H](Cc1ccc(O)cc1)C(=O)N[C@@H](CCCCNC(=O)N1CCN(CC(=O)O)CC1)C(=O)N[C@@H](Cc1c[nH]c3ccc(O)cc13)C(=O)NC(C)(C)C(=O)N[C@@H](C(C)C)C(=O)N[C@H](C(=O)NCCCC[C@H](NC(=O)CC[C@H](NC(=O)CC[C@H](NC(=O)CCCCCCCCCCCCCCC(=O)O)C(=O)O)C(=O)O)C(N)=O)CSCC(=O)N[C@@H](Cc1ccc(O)cc1)C(=O)N2C` [Compound 27] ({CH2CO}-Y[NMeK]VVSN[Trp(1-CH2CO)]YK([CO-Piperazinyl(4-CH2COOH)])[Trp(5-OH)][Aib]VC-X3; lactam 2-7; thioether N-13), the Kd is 1.79 nM.

In the case of `CC(C)[C@@H]1NC(=O)[C@H](C(C)C)NC(=O)[C@@H]2CCCCNC(=O)Cn3cc(c4ccccc43)C[C@H](NC(=O)[C@H](CC(N)=O)NC(=O)[C@H](CO)NC1=O)C(=O)N[C@@H](Cc1ccc(C(=O)O)cc1)C(=O)N[C@@H](CCCCN)C(=O)N[C@@H](Cc1c[nH]c3ccc(O)cc13)C(=O)NC(C)(C)C(=O)N[C@@H](C(C)C)C(=O)N[C@H](C(=O)NCC(=O)N1CCC[C@H]1C(=O)N[C@H](CO)C(=O)N[C@H](CO)C(=O)N[C@H](CO)C(=O)N[C@@H](CCCCNC(=O)CC[C@H](NC(=O)CC[C@H](NC(=O)CCCCCCCCCCCCCCC(=O)O)C(=O)O)C(=O)O)C(N)=O)CSCC(=O)N[C@@H](Cc1ccc(O)cc1)C(=O)N2C` [Compound 25] ({CH2CO}-Y[NMeK]VVSN[Trp(1-CH2CO)][Phe(4-COOH)]K[Trp(5-OH)][Aib]VCGP[dS][dS][dS]K([γGlu-γGlu-C16 diacid])-NH2; lactam 2-7; thioether N-13), the Kd is 2.23 nM.

Still in this assay, the particulars now being: SPR, hGhR; Table 2 monocyclic peptides; KD calculated from ka and kd; read-out: KD.
Take `COc1ccc2[nH]cc(C[C@@H]3NC(=O)[C@H](CC(N)=O)NC(=O)[C@H](CO)NC(=O)[C@H](C(C)C)NC(=O)[C@H](C(C)C)NC(=O)[C@H](CCCCNC(=O)CC[C@H](NC(=O)CCCc4ccc(I)cc4)C(=O)O)N(C)C(=O)[C@H](Cc4ccc(C(=O)O)cc4)NC(=O)CSC[C@@H](C(=O)NCC(=O)N4CCC[C@H]4C(=O)N[C@H](CO)C(=O)N[C@H](CO)C(=O)N[C@H](CO)C(N)=O)NC(=O)[C@H](C(C)C)NC(=O)C(C)(C)NC(=O)[C@H](Cc4c[nH]c5ccc(O)cc45)NC(=O)[C@H](CCCCN)NC(=O)[C@H](Cc4ccc(C(=O)O)cc4)NC3=O)c2c1` [Compound 41] ({CH2CO}-[Phe(4-COOH)][NMeK]([γGlu-Butanoyl(4-(4-I-phenyl))])VVSN[Trp(5-OMe)][Phe(4-COOH)]K[Trp(5-OH)][Aib]VCGP[dS][dS][dS]-NH2; thioether N-13): the Kd was 2.63 nM.

For `COc1ccc2[nH]cc(C[C@@H]3NC(=O)[C@H](CC(N)=O)NC(=O)[C@H](CO)NC(=O)[C@H](C(C)C)NC(=O)[C@H](C(C)C)NC(=O)[C@H](CCCCNC(=O)CC[C@H](NC(=O)CCCCCc4ccccc4)C(=O)O)N(C)C(=O)[C@H](Cc4ccc(O)cc4)NC(=O)CSC[C@@H](C(=O)NCC(=O)N4CCC[C@H]4C(=O)N[C@H](CO)C(=O)N[C@H](CO)C(=O)N[C@H](CO)C(N)=O)NC(=O)[C@H](C(C)C)NC(=O)C(C)(C)NC(=O)[C@H](Cc4c[nH]c5ccc(O)cc45)NC(=O)[C@H](CCCCN)NC(=O)[C@H](Cc4ccc(C(=O)O)cc4)NC3=O)c2c1` [Compound 57] ({CH2CO}-Y[NMeK]([γGlu-Hexanoyl(6-Ph)])VVSN[Trp(5-OMe)][Phe(4-COOH)]K[Trp(5-OH)][Aib]VCGP[dS][dS][dS]-NH2; thioether N-13), the Kd was 1.25 nM.

In the case of `COc1ccc2[nH]cc(C[C@@H]3NC(=O)[C@H](CC(N)=O)NC(=O)[C@H](CO)NC(=O)[C@H](C(C)C)NC(=O)[C@H](C(C)C)NC(=O)[C@H](CCCCNC(=O)CC[C@H](NC(=O)CCCc4ccc(I)cc4)C(=O)O)N(C)C(=O)[C@H](Cc4ccc(O)cc4)NC(=O)CSC[C@@H](C(=O)NCC(=O)N4CCC[C@H]4C(=O)N[C@H](CO)C(=O)N[C@H](CO)C(=O)N[C@H](CO)C(N)=O)NC(=O)[C@H](C(C)C)NC(=O)C(C)(C)NC(=O)[C@H](Cc4c[nH]c5ccc(O)cc45)NC(=O)[C@H](CCCCN)NC(=O)[C@H](Cc4ccc(C(=O)O)cc4)NC3=O)c2c1` [Compound 54] ({CH2CO}-Y[NMeK]([γGlu-Butanoyl(4-(4-I-phenyl))])VVSN[Trp(5-OMe)][Phe(4-COOH)]K[Trp(5-OH)][Aib]VCGP[dS][dS][dS]-NH2; thioether N-13), the Kd is 2.08 nM.

As to `COc1ccc2[nH]cc(C[C@@H]3NC(=O)[C@H](CC(N)=O)NC(=O)[C@H](CO)NC(=O)[C@H](C(C)C)NC(=O)[C@H](C(C)C)NC(=O)[C@H](CCCCNC(=O)CC[C@H](NC(=O)CC[C@H](NC(=O)CCCc4ccc(I)cc4)C(=O)O)C(=O)O)N(C)C(=O)[C@H](Cc4ccc(O)cc4)NC(=O)CSC[C@@H](C(=O)NCC(=O)N4CCC[C@H]4C(=O)N[C@H](CO)C(=O)N[C@H](CO)C(=O)N[C@H](CO)C(N)=O)NC(=O)[C@H](C(C)C)NC(=O)C(C)(C)NC(=O)[C@H](Cc4c[nH]c5ccc(O)cc45)NC(=O)[C@H](CCCCN)NC(=O)[C@H](Cc4ccc(C(=O)O)cc4)NC3=O)c2c1` [Compound 55] ({CH2CO}-Y[NMeK]([γGlu-γGlu-Butanoyl(4-(4-I-phenyl))])VVSN[Trp(5-OMe)][Phe(4-COOH)]K[Trp(5-OH)][Aib]VCGP[dS][dS][dS]-NH2; thioether N-13), the Kd is 2.83 nM.

Turning to `COc1ccc2[nH]cc(C[C@@H]3NC(=O)[C@H](CC(N)=O)NC(=O)[C@H](CO)NC(=O)[C@H](C(C)C)NC(=O)[C@H](C(C)C)NC(=O)[C@H](CCCCNC(=O)CC[C@H](NC(=O)CCCc4ccc(I)cc4)C(=O)O)N(C)C(=O)[C@H](Cc4ccncc4)NC(=O)CSC[C@@H](C(N)=O)NC(=O)[C@H](C(C)C)NC(=O)C(C)(C)NC(=O)[C@H](Cc4c[nH]c5ccc(O)cc45)NC(=O)[C@H](CCCCN)NC(=O)[C@H](Cc4ccc(C(=O)O)cc4)NC3=O)c2c1` [Compound 34] ({CH2CO}-[4Pal][NMeK]([γGlu-Butanoyl(4-(4-I-phenyl))])VVSN[Trp(5-OMe)][Phe(4-COOH)]K[Trp(5-OH)][Aib]VC-NH2; thioether N-13), the dissociation constant (Kd) is 2.77 nM.

As to `COc1ccc2[nH]cc(C[C@@H]3NC(=O)[C@H](CC(N)=O)NC(=O)[C@H](CO)NC(=O)[C@H](C(C)C)NC(=O)[C@H](C(C)C)NC(=O)[C@H](CCCCNC(=O)CC[C@H](NC(=O)CCCCCc4ccccc4)C(=O)O)N(C)C(=O)[C@H](Cc4ccc(C(=O)O)cc4)NC(=O)CSC[C@@H](C(N)=O)NC(=O)[C@H](C(C)C)NC(=O)C4(CCN(CC(=O)O)CC4)NC(=O)[C@H](Cc4c[nH]c5ccc(O)cc45)NC(=O)[C@H](CCCCN)NC(=O)[C@H](Cc4ccc(C(=O)O)cc4)NC3=O)c2c1` [Compound 38] ({CH2CO}-[Phe(4-COOH)][NMeK]([γGlu-Hexanoyl(6-Ph)])VVSN[Trp(5-OMe)][Phe(4-COOH)]K[Trp(5-OH)][X7]VC-NH2; thioether N-13), the Kd was 2.82 nM.

One may read the Kd as the equilibrium constant for the complex coming apart.

The values above are taken from patent US12415834B2, “GhR-binding peptide and composition comprising same” (priority 2021, dated 2025).
